In brackets after ≈: the same amount, converted by molar mass. Several values for one entry are separate records, joined by “and”; a condition that tells them apart may be missing. Equal entries are not always repeated.
What was measured:
[1] = tested on: Escherichia coli K12; assay: MIC by microbroth dilution, E. coli K12; format: cell-based; conditions: for MIC: Escherichia coli, K12, 24 h 37° C., read-out: MIC S5 = E. coli K 12; for MIC S5 = E. coli K 12: 24 h 37° C.
Procedure: (§1) Minimum Inhibitory Concentration (MIC) Determination:
(§2) Bacteria used in this study were Staphylococcus aureus ATCC 29213, Escherichia coli ATCC 25922, Escherichia coli K12, Staphylococcus aureus ATCC 33591, Pseudomonas aeruginosa ATCC 27853, and Enterococcus faecalis ATCC 29212. All compounds were tested by the microbroth dilution method following Clinical and Laboratory Standards Institute guidelines. Briefly, Mueller-Hinton broth (Difco Laboratories, Becton Dickinson) was inoculated with each organism and incubated at 37° C. with shaking to establish logarithmic growth. Following incubation, each culture was pelleted by centrifugation (3,500×g for 5 min) and resuspended in 0.85% sterile saline solution to an optical density at 625 nm of 0.1. Samples were tested in triplicate using 96 well microplates (Corning Costar Corp. Cambridge, Mass.), yielding final bacterial concentrations of 5×10^5 CFU/mL, and incubated for 24 h at 37° C. Following incubation, optical densities of each well were determined with a μQuant microplate spectrophotometer (BioTek Instruments, Inc., Winooski, Vt.) at 625 nm.

[2] = tested on: Enterococcus faecalis ATCC 29212; assay: MIC by microbroth dilution, E. faecalis 29212; format: cell-based; conditions: for MIC: Enterococcus faecalis, ATCC29212, read-out: MIC S6 = E. faecalis 29212; for MIC / MIC S6 = E. faecalis 29212: microbroth dilution, 24 h 37° C.; for activity against E. faecalis 29212 (in words): comment on Table 4
Procedure: as §1, §2

[3] = molecular target: T1, human DNA topoisomerase I (Homo sapiens, UniProt P11387); assay: Inhibition assay against human DNA topoisomerase I (plasmid relaxation, agarose gel); format: biochemical; conditions: for IC50: 2 units enzyme, supercoiled pBAD-GFPuv, 30 min 37° C., read-out: IC50 hTopo I; for supercoiled DNA template prevented from relaxation by human DNA topoisomerase I: 50 μM compound
T1 sequence (P11387 1-765): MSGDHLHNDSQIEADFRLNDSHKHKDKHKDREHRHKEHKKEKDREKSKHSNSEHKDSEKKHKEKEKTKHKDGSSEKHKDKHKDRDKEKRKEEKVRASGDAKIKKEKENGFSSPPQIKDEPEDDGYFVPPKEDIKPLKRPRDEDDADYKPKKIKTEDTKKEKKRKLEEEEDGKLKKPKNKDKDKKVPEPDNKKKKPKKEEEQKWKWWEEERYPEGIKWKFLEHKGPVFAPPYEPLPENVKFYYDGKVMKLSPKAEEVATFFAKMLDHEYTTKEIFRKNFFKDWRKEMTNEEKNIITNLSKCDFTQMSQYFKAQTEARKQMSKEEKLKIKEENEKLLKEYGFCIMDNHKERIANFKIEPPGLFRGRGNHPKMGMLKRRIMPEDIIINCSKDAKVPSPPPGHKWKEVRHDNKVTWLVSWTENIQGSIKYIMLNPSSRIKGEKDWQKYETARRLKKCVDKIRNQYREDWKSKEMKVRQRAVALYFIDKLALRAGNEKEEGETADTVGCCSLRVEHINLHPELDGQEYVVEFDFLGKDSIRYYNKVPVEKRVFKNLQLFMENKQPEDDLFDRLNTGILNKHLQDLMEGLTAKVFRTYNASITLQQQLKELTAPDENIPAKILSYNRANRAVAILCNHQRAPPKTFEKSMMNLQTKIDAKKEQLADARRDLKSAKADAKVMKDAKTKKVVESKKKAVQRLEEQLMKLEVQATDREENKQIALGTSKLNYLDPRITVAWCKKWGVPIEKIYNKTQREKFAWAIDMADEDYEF
Procedure: Inhibition Assays Against Human DNA Topoisomerase I:
The inhibition assays were used to determine the activities of the newly synthesized compounds against Human DNA topoisomerase I. The reaction mixture (25 μl) contained 20 mM Tris-HCl at pH 7.9, 50 mM KAc, 10 mM Mg(Ac)2, 1 mM DTT, 1 μg/ml BSA, 250 ng of the supercoiled plasmid pBAD-GFPuv, 2 units of Human DNA topoisomerase I, and one of the compounds at a final concentration that ranges from 5 to 50 μM. All components were assembled on ice and incubated for 30 minutes at 37° C. After the incubation, the reactions were terminated by extraction with an equal volume of phenol. The topological state of the DNA samples was analyzed with 1% agarose gel electrophoresis in 1×TAE buffer, pH 7.8. Following electrophoresis, the agarose gel was stained with Ethidium Bromide, destained, and photographed under UV light. The intensity of DNA topoisomers was determined using KODAK 1D Image Analysis Software. The percentage of (−) supercoiled DNA was calculated from a comparison of the intensity of the (−) supercoiled band with the total intensity of all DNA topoisomers. The IC50 was calculated as the amount of the drug for which 50% of the DNA was in a (−) supercoiled state.

[4] = tested on: dA60.dT60 duplex; assay: UV thermal denaturation of AT rich DNA duplex; format: binding; conditions: ligand 10 μM, DNA 1 μM/duplex, 10 mM sodium cacodylate, 0.1 mM EDTA, 100 mM NaCl, pH 7.0; for ΔTm (thermal stabilization): duplex alone 62.5° C.
Procedure: Nucleic acids were purchased from Integrated DNA Technologies (Coraville, Iowa). The concentration of the nucleic acid was determined using the extinction coefficient provided by the supplier. The DNA duplex was prepared by heating the dA60 and dT60 in equimolar ratio in buffer 10 mM sodium cacodylate, 0.1 mM EDTA and 100 mM NaCl at pH 7.0 at 95° C. for 15 minutes and then slowly allowing it to cool back to room temperature. After two days of incubation, the duplex formation was checked by UV thermal denaturation experiments. The stock solution was stored at 4° C. and diluted to desired concentrations as required.
Ultra Violet (UV) Thermal Denaturation Experiments:
All UV spectra were obtained on a 12 cell holder Cary 1E UV-Vis spectrophotometer equipped with temperature controller. Quartz cells with 1 cm path length were used for all the experiments. Spectrophotometer stability and wavelength alignment were checked prior to initiation of each thermal denaturation experiment. For all experiments, the samples were prepared by diluting a stock sample. The melting of DNA with and without the ligand was performed at a heating rate of 0.2° C./min. Samples were brought back to 20° C. after the experiment. All UV melting experiments were monitored at 260 nm. For the Tm determinations, derivatives were used. Data points were recorded every 1.0° C. The DNA concentration was 1 μM/duplex while the ligand concentration was 10 μM. All ligand solutions were prepared in dimethyl sulfoxide (DMSO) as concentrated stock solution (6-10 mM) and diluted to desired concentrations in buffer.
Bisbenzimidazoles are known to bind to the minor groove of AT rich DNA. The UV thermal denaturation experiments of the synthesized ligands were carried out with an AT rich DNA duplex. A 60 mer B-DNA duplex that was prepared by mixing equimolar amounts of a 60 mer homoadenine with a 60 mer homothymine polymer.

SMILES | MIC [1] | MIC [2] | IC50 [3] | Tm [4] | ΔTm (thermal stabilization) [4] | activity against E. faecalis 29212 (in words) [2] | supercoiled DNA template prevented from relaxation by human DNA topoisomerase I [3] | MIC S5 = E. coli K 12 [1] | MIC S6 = E. faecalis 29212 [2] | ΔTm (thermal stabilization) ([4]; listed as Hoechst 33242)
C#CCCCCCCCCCOc1ccc(-c2nc3ccc(-c4nc5ccc(N6CCN(C)CC6)cc5[nH]4)cc3[nH]2)cc1 [DPA 153, 6-(4-methylpiperazin-1-yl)-2′-(4-(undec-10-ynyloxy)phenyl)-1H,3′H-2,5′-bibenzo[d]imidazole] | 8 to 16 µg/mL (≈ 13.9 to 27.8 µM) | 16 to 32 µg/mL (≈ 27.8 to 55.7 µM) | > 50 µM | 70.5 °C | 8 °C |  |  |  |  | 
C#CCOCCCCOc1ccc(-c2nc3ccc(-c4nc5ccc(N6CCN(C)CC6)cc5[nH]4)cc3[nH]2)cc1 [DPA 154, 6-(4-methylpiperazin-1-yl)-2′-(4-(4-(prop-2-ynyloxy)butoxy)phenyl)-1H,3′H-2,5′-bibenzo[d]imidazole] | 8 to 16 µg/mL (≈ 15 to 29.9 µM) |  | > 50 µM | 85.9 °C | 23.4 °C | markedly improved activity |  |  |  | 
C#CCOc1ccc(-c2nc3ccc(-c4nc5ccc(N6CCN(C)CC6)cc5[nH]4)cc3[nH]2)cc1 [DPA 151, 6-(4-methylpiperazin-1-yl)-2′-(4-(prop-2-ynyloxy)phenyl)-1H,3′H-2,5′-bibenzo[d]imidazole] | 8 µg/mL (≈ 17.3 µM) | 16 to 32 µg/mL (≈ 34.6 to 69.2 µM) | 25.4 ± 2.2 µM | 85.4 °C | 22.9 °C and 23.9 °C |  | about 70% |  |  | 
CN1CCN(c2ccc3[nH]c(-c4ccc5[nH]c(-c6ccc(O)cc6)nc5c4)nc3c2)CC1 [Hoechst 33258, reference compound] |  |  | 22.9 ± 1.55 µM | 87.1 °C | ~24 °C and 24.6 °C | not good inhibitors | about 70% | 16 µg/mL (≈ 37.7 µM) | 16 to 32 µg/mL | 
C#CCCCCOc1ccc(-c2nc3ccc(-c4nc5ccc(N6CCN(C)CC6)cc5[nH]4)cc3[nH]2)cc1 [DPA 152, 2′-(4-(hex-5-ynyloxy)phenyl)-6-(4-methylpiperazin-1-yl)-1H,3′H-2,5′-bibenzo[d]imidazole] | 8 to 16 µg/mL (≈ 15.9 to 31.7 µM) | 4 µg/mL (≈ 7.93 µM) | > 50 µM | 83.4 °C | 20.9 °C | markedly improved activity |  |  |  | 
CCOc1ccc(-c2nc3ccc(-c4nc5ccc(N6CCN(C)CC6)cc5[nH]4)cc3[nH]2)cc1 [Hoechst 33342, reference compound] |  |  | > 50 µM | 86.6 °C | ~24 °C | not good inhibitors |  | 8 µg/mL (≈ 17.7 µM) | 16 to 32 µg/mL | 24.1 °C

From patent US9920014B2, “Selective inhibition of bacterial topoisomerase I” (THE FLORIDA INTERNATIONAL BOARD OF TRUSTEES MODESTO A. …, priority 2013, dated 2018)
